These are literature values, as cited in patent publication US12691120B2, “Liquid oral formulations for PDE V inhibitors” (LIQMEDS WORLDWIDE LIMITED, priority 2017, dated 2026).

The conditions of series [1]: measured using rats.
The conditions of series [2]: oral administration.
For series [3] the following is noted: tablets or oral suspension.
Where [4] appears, read: EMEA CHMP Assessment Report for Vizarsin.
Where [5] appears, read: Jordanian Pharmaceutical Manufacturing Co.

Counter-ions that a name gives are not always drawn. Like-named read-outs stand apart in the source and are kept apart here.

As a reminder, the bioavailability is dose-corrected exposure relative to a reference, in per cent. Regarding `CN1CC(=O)N2[C@H](c3ccc4c(c3)OCO4)c3[nH]c4ccccc4c3C[C@@H]2C1=O` [Tadalafil], the water solubility result is on record as “about 2 μg/mL”. Also, in series [1], the bioavailability was 20.5%. The “average time required to reach the maximum blood concentration (Cmax)” value in series [2] is 2 h.

For the compound `CCCc1nn(C)c2c(=O)[nH]c(-c3cc(S(=O)(=O)N4CCN(C)CC4)ccc3OCC)nc12` [Sildenafil citrate], the absolute bioavailability entry in series [3] is “about 41%”. Under setting [4], the solubility in acetone entry is given as “insoluble”, the solubility in chloroform entry was “insoluble”, the “solubility in dimethylsulfoxide (DMSO)” value was “soluble” and the solubility in ethanol entry is “insoluble”. Also, under setting [4], the solubility in methanol entry is reported as “soluble”. For the same compound, under setting [5], the solubility in ethanol is ~ 1 mg/ml and the “times less soluble in ethanol than in water” value was “about 3.5 times”.
